Experimental data from ChEMBL document CHEMBL1201862, “PubChem BioAssay data set” (2004).
Activity calls are given as the source filed them.

How the values were obtained:
[1] = HPDE-C7 pancreatic duct cell viability loss – fluorescence, HTS (AID 430); type: functional, cell-based; details: Homo sapiens
[2] = viability loss of HPDE-C7K cells – cell-based, fluorescence, HTS, primary screen (AID 431); type: functional; details: Homo sapiens
[3] = viability of PTEN-deleted HCT116 cells – cell-based, HCT116 PTEN knockout, dose response (AID 1047); type: functional;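 also: HCT116 colon tumor cells with PTEN knocked out; cells exposed to compound for 60 hours before readout; potency for loss of cell viability measured by luminescence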
[4] = viability of HCT116 lacking mutant beta-catenin – cell-based, human colon tumor, dose response (AID 1045); type: functional;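 also: HCT116 colon tumor cells with beta catenin knocked out; cells exposed to compound for 60 hours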
[5] = biological target: T1, Aminopeptidase N (Plasmodium falciparum FcB1/Columbia, UniProt O96935); assay: malaria alanyl aminopeptidase activity blockers – biochemical, fluorogenic H-Leu-NHMec substrate, 1536-well (AID 1445); parameters: species or system Plasmodium falciparum 3D7, 3D7
T1 sequence (O96935 whole entry): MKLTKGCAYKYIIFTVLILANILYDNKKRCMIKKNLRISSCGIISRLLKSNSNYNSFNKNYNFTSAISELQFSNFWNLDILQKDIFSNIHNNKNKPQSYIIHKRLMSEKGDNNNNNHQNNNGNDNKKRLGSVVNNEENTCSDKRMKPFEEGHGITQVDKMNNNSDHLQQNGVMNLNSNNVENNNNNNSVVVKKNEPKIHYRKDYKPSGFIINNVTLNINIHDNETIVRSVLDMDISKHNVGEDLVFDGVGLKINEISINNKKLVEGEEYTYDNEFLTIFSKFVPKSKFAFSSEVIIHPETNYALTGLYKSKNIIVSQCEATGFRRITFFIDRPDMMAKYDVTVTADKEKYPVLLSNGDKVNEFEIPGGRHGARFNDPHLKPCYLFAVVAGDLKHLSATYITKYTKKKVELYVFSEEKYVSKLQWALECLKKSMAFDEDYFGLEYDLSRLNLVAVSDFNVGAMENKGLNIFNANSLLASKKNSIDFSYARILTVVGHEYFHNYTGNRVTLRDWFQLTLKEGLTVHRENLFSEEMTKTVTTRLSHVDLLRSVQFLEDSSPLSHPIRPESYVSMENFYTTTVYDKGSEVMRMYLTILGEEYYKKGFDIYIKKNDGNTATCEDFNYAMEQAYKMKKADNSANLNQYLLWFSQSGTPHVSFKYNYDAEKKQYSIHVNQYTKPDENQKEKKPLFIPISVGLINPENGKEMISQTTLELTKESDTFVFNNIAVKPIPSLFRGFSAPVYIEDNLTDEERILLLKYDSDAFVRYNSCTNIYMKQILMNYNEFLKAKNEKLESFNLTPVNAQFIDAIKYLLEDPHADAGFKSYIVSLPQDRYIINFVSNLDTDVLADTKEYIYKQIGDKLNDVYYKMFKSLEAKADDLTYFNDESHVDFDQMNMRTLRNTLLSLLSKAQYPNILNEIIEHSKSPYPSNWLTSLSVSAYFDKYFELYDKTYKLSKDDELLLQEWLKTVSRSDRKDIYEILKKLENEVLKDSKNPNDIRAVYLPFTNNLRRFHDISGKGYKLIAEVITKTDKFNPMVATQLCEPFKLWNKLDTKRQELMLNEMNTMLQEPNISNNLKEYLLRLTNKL

[6] = viability loss in THP-1 monocytes – THP-1 cells, cytotoxicity control for Vif-APOBEC3G degradation inhibitor project, dose response (AID 1117359); type: functional; details: THP-1
[7] = biological target: T2, Mannose-6-phosphate isomerase (Homo sapiens, UniProt P34949); assay: MPI enzyme activity inhibition – biochemical, fluorescence intensity, coupled assay, primary screen (AID 1209)
T2 sequence (P34949 whole entry): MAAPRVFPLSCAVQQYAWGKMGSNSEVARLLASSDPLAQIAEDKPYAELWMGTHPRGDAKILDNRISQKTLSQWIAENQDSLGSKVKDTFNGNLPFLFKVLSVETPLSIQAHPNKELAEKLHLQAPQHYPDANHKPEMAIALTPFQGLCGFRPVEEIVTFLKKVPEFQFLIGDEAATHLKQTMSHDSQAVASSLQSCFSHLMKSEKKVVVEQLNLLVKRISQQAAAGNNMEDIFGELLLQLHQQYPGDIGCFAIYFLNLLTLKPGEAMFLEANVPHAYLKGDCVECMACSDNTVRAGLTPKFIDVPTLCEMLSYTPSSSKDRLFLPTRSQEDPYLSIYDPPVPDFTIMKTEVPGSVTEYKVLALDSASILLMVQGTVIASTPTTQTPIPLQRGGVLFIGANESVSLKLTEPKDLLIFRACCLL

[8] = biological target: T2, Mannose-6-phosphate isomerase; assay: MPI inhibition at elevated mannose 6-phosphate – biochemical, fluorescence intensity, high mannose 6-phosphate, primary screen (AID 1220)
[9] = biological target: Peroxisome proliferator-activated receptor gamma/Nuclear receptor coactivator 2 (Homo sapiens, UniProt P37231); type: functional;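 also: agonist potency for raising coactivator recruitment to the receptor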
[10] = biological target: Peroxisome proliferator-activated receptor gamma/Nuclear receptor coactivator 1 (Homo sapiens, UniProt P37231); type: functional;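 also: agonist potency as compounds enhance coactivator SRC-1 recruitment to PPARgamma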
[11] = biological target: Peroxisome proliferator-activated receptor gamma/Nuclear receptor coactivator 3 (Homo sapiens, UniProt P37231); type: functional;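 also: agonist potency for raising coactivator recruitment to the receptor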
[12] = Trypanosoma cruzi growth suppression in host cells – NIH3T3 host cells, beta-gal luminescence, confirmation (AID 2044); type: functional, cell-based;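 also: intracellular parasites grown in NIH/3T3 mouse fibroblasts as host cells; luminescent beta-galactosidase reporter signal from transgenic T. cruzi replicating inside host cells; inhibitors lower the luminescence signal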
[13] = NIH3T3 cell viability loss – ATP luminescence, mouse fibroblasts, counter-screen, dose response (AID 2010); type: functional, cell-based; details: NIH3T3;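 also: cells exposed to compound for about 90 hours before reading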
[14] = biological target: T3, DNA repair protein RAD52 homolog (Homo sapiens, UniProt P43351); type: functional, biochemical
T3 sequence (P43351 whole entry): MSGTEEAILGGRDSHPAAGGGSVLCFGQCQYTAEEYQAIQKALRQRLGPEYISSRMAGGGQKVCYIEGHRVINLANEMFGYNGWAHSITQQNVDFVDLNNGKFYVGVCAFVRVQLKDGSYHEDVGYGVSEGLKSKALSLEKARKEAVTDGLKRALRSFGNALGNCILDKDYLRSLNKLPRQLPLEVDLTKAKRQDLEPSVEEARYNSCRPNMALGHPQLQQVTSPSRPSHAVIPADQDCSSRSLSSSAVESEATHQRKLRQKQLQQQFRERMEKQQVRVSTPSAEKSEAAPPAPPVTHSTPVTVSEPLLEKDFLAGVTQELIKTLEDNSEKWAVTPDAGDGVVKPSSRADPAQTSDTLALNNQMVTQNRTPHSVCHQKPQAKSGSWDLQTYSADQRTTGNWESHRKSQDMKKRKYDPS

[15] = cells
[16] = test system: BJ; assay: BJ-TERT fibroblast viability loss – cell-based, RAS-independent, luminescence, dose response (AID 1933); type: functional; details: Homo sapiens
[17] = test system: BJ; assay: cells; type: functional, cell-based; details: Homo sapiens
[18] = test system: BJ; assay: BJ-TERT-LT-ST fibroblast viability loss – cell-based, RAS-independent, luminescence, dose response (AID 1935); type: functional; details: Homo sapiens;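 also: BJ fibroblasts immortalized with TERT plus LT and ST oncogenes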
[19] = DRD fibroblast viability loss – cell-based, non-viral oncogenic, luminescence, dose response (AID 1934); type: functional; details: Homo sapiens
[20] = biological target: T4, Replicative DNA helicase DnaB (Mycobacterium tuberculosis, UniProt P9WMR3); assay: DnaB intein splicing inhibitors, dose response, biochemical, cell-free fluorescence (AID 449749); type: functional
T4 sequence (P9WMR3 whole entry): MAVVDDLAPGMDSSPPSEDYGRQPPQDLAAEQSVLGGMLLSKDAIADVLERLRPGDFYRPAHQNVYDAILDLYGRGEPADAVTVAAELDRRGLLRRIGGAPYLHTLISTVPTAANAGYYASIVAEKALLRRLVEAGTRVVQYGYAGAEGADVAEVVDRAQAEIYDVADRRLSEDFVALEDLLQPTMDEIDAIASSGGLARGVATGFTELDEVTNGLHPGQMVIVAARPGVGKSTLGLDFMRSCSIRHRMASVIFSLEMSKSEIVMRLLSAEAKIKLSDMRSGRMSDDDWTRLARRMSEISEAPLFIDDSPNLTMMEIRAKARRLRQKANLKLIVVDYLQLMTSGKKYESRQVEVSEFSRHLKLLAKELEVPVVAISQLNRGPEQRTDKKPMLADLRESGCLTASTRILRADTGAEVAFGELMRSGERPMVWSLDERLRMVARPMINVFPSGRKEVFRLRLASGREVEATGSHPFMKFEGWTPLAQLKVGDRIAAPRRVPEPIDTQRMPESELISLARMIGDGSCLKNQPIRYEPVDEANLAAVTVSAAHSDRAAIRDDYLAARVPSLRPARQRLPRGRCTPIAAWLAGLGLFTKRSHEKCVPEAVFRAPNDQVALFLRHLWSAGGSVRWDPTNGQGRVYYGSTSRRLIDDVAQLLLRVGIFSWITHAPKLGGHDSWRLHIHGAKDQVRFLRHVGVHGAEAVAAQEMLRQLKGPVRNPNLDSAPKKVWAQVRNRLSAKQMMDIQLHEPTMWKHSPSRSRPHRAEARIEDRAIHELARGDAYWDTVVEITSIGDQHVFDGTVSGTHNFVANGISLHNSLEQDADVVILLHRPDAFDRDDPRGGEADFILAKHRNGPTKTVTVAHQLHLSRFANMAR

[21] = biological target: T5, Protein RecA (Mycobacterium tuberculosis, UniProt P9WHJ3); assay: Fluorescence Cell-Free Homogeneous Dose Retest to Identify Inhibitors of RecA-Intein Splicing Activity. [Related pubchem assays (depositor defined):AID2097, AID2223, AID489010, AID492950]; type: functional
T5 sequence (P9WHJ3 whole entry): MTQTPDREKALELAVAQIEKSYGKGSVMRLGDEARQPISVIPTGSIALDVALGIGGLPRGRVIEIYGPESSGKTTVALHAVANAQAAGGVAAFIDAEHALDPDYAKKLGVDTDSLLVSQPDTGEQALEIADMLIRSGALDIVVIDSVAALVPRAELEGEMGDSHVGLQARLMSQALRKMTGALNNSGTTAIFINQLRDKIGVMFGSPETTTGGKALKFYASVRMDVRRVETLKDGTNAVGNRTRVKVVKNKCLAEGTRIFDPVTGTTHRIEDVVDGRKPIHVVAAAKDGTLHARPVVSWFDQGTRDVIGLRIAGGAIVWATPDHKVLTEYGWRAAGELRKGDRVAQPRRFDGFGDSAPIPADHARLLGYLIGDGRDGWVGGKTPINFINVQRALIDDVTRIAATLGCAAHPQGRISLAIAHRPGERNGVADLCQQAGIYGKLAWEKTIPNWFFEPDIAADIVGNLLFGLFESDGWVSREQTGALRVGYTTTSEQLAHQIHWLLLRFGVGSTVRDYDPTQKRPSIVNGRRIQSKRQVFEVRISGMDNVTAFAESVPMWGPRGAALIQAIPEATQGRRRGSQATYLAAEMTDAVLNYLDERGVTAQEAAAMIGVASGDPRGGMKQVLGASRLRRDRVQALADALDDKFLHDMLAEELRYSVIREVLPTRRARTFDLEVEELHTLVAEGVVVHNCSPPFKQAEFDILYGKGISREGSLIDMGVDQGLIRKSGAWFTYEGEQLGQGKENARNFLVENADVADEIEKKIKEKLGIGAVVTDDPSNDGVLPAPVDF

Sequence of Peroxisome proliferator-activated receptor gamma/Nuclear receptor coactivator 3 (P37231 whole entry): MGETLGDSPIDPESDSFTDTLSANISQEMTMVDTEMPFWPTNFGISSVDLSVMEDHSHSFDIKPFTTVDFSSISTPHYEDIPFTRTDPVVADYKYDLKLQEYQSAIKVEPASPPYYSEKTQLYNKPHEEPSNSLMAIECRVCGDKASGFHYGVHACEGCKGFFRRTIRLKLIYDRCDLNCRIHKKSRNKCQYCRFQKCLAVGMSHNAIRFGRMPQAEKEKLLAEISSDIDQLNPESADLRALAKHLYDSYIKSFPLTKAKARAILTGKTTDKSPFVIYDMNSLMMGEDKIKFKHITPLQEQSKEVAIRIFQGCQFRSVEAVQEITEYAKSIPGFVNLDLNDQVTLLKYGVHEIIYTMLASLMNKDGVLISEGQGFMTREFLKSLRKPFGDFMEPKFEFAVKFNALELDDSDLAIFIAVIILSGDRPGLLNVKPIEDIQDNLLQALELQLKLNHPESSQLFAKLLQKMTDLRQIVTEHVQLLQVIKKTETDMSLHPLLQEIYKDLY
Sequence of Peroxisome proliferator-activated receptor gamma/Nuclear receptor coactivator 3 (Q9Y6Q9 whole entry, further chain): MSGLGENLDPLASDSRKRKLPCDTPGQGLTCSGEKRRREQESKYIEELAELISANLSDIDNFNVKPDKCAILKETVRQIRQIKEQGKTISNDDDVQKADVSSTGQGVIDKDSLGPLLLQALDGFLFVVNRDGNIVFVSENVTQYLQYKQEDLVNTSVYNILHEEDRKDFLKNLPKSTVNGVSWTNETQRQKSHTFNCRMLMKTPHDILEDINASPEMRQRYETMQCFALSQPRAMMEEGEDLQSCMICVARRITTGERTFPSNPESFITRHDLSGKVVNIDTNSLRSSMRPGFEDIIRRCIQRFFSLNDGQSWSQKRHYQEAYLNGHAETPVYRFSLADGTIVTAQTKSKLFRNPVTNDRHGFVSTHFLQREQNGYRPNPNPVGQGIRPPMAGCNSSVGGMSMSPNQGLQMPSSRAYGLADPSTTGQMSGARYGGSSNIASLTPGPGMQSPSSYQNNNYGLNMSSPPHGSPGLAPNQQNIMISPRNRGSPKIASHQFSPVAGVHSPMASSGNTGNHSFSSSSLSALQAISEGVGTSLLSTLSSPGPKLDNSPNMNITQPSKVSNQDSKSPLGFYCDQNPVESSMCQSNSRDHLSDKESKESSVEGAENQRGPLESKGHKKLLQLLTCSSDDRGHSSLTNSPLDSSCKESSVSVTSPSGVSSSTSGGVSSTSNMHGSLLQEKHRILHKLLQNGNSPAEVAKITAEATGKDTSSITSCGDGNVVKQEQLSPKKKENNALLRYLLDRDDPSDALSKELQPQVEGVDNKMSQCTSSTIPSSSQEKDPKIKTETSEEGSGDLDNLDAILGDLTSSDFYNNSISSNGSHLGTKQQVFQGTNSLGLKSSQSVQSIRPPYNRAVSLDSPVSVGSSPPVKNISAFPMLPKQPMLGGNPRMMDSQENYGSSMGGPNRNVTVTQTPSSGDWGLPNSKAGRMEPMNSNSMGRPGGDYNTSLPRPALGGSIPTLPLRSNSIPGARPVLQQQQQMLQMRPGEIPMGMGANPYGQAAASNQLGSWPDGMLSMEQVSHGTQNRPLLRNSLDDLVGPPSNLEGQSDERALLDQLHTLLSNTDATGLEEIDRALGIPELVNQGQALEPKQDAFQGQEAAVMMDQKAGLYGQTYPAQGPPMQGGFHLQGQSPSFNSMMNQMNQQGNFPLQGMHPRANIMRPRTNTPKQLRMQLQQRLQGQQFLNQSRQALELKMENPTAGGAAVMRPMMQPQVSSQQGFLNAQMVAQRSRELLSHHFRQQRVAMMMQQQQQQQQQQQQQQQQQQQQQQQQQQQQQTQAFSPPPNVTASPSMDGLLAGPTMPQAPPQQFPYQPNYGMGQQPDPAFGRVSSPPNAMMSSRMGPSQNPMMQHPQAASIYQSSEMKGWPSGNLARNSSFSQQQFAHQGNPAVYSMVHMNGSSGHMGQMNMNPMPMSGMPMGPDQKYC
Sequence of Peroxisome proliferator-activated receptor gamma/Nuclear receptor coactivator 1 (P37231 whole entry): as the sequence (P37231 whole entry) above
Sequence of Peroxisome proliferator-activated receptor gamma/Nuclear receptor coactivator 1 (Q15788 whole entry, further chain): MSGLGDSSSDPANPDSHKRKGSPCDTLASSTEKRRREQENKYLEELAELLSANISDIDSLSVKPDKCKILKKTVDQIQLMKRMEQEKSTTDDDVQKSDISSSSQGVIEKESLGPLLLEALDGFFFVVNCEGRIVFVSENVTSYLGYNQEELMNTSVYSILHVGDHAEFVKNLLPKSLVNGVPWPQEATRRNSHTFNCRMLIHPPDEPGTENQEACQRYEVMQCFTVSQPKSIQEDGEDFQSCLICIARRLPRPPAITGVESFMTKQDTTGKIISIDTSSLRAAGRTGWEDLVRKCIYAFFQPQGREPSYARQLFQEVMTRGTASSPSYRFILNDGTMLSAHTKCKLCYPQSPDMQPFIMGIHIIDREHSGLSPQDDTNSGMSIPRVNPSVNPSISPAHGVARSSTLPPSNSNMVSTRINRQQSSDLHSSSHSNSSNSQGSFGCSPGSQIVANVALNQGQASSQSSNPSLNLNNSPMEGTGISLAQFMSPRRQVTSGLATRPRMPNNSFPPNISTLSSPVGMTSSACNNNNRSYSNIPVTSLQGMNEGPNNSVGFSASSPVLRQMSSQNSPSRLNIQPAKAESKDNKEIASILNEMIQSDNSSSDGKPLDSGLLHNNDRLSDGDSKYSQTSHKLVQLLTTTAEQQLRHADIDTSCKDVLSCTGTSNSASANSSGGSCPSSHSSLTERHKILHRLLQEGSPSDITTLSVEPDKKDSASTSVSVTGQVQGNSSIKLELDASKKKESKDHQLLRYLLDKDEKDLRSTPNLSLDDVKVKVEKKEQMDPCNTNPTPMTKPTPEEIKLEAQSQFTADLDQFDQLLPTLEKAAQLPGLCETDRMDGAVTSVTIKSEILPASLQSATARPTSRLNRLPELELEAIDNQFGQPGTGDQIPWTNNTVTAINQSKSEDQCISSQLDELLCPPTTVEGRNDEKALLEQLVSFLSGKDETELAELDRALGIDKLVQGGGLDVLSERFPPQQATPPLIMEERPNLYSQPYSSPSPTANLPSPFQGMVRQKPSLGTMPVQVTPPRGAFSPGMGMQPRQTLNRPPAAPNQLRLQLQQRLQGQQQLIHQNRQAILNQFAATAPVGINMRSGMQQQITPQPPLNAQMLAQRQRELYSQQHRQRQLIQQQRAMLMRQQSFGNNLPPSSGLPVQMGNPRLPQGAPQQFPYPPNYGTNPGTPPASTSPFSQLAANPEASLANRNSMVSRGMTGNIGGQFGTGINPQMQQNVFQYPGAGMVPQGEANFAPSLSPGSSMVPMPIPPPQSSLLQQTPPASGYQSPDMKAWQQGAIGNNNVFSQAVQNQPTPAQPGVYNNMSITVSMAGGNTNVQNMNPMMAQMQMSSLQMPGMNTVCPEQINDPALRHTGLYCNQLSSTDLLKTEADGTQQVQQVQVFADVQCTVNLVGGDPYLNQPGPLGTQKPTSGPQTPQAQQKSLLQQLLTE

**Q.** Which EC50 [1] does the source give for `O=S(=O)(CCN(CCS(=O)(=O)C(F)(F)F)CC1CCCO1)C(F)(F)F` (centres undefined) here?
**A.** 11.1 µM (active)

**Q.** And the EC50 [2]?
**A.** 10.6 µM (active)

**Q.** And the EC50 [3]?
**A.** 15.3 µM (active)

**Q.** What about the EC50 [4] of the same compound?
**A.** 9.32 µM (active)

**Q.** For `CCOC(=O)N1CCN(c2c(NCc3ccccc3Cl)c(=O)c2=O)CC1`, which IC50 [5] is on record?
**A.** 69.3 µM (active)

**Q.** And the CC50 [6]?
**A.** 29.6 µM (active)

**Q.** Which results are given for `CN1C(=O)N(C)C(=O)C2(Cc3c(ccc4ccccc34)N(C)C2)C1=O`?
**A.** IC50 [7]: > 50 µM (not active); IC50 [8]: > 50 µM (not active)

**Q.** With `O=C(Nc1ccc([N+](=O)[O-])cc1)/C(=C/c1cccc([N+](=O)[O-])c1)NC(=O)C1CCCCC1` as the compound, how does the EC50 [9] read?
**A.** > 79.4 µM (not active)

**Q.** And the EC50 [10]?
**A.** > 79.4 µM (not active)

**Q.** What about the EC50 [11] of the same compound?
**A.** > 79.4 µM (not active)

**Q.** With `COc1cc2nc(N(CCCN(C)C)C(=O)c3ccc(S(=O)(=O)N4CCc5ccccc54)cc3)sc2cc1OC` as the compound, how does the EC50 [12] read?
**A.** < 100 nM (active)

**Q.** What about the EC50 [13] of the same compound?
**A.** 16.4 µM (active)

**Q.** What about the AC50 [14] of the same compound?
**A.** 6.54 µM (active)

**Q.** What about the EC50 [15] of the same compound?
**A.** 129 nM (active)

**Q.** For `CC(C)N(c1ccccc1)c1ccc(NC(=O)CCl)cc1`, which EC50 [16] is on record?
**A.** 344 nM (inconclusive)

**Q.** What about the EC50 [17] of the same compound?
**A.** 108 µM (active)

**Q.** And the EC50 [12]?
**A.** < 100 nM (active)

**Q.** What about the EC50 [13] of the same compound?
**A.** > 60 µM (not active)

**Q.** What about the EC50 [18] of the same compound?
**A.** > 150 µM (inconclusive)

**Q.** What about the EC50 [19] of the same compound?
**A.** 1.37 µM (active)

**Q.** What about the AC50 [20] of the same compound?
**A.** 4.41 µM (active)

**Q.** And the EC50 [21]?
**A.** 505 nM (active)

**Q.** What about the EC50 [15] of the same compound?
**A.** 102 nM (active)
